Experimental data from patent US10166216B2 (Rigel Pharmaceuticals, Inc., priority 2006, dated 2019).
pIC50: −log10 of the molar value.

Target: Axl (Homo sapiens (Human), UniProt P30530)
Test: Phospho-Akt in-cell Western assay (Axl-antibody cross-linking stimulation)
Type: cell-based
Conditions: inhibition of Axl activity
Outline: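 HeLa cells on poly-L-lysine, starved 24 hrs with Axl/Fc, pre-treated with compound 1 hr at 37° C., then stimulated 5 min with Axl primary/secondary antibody cluster. Fixed cells probed for phospho-Akt by chemiluminescent in-cell Western; signal normalized to crystal violet cell number.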

[1] = phospho-Akt in-cell Western assay
[2] = Hela cells, phospho-Akt readout, Table 5, formula (Ia3)
[3] = Hela cells, phospho-Akt readout, Table 1, formula (Ia1)

Sequence of Axl (P30530 26-894): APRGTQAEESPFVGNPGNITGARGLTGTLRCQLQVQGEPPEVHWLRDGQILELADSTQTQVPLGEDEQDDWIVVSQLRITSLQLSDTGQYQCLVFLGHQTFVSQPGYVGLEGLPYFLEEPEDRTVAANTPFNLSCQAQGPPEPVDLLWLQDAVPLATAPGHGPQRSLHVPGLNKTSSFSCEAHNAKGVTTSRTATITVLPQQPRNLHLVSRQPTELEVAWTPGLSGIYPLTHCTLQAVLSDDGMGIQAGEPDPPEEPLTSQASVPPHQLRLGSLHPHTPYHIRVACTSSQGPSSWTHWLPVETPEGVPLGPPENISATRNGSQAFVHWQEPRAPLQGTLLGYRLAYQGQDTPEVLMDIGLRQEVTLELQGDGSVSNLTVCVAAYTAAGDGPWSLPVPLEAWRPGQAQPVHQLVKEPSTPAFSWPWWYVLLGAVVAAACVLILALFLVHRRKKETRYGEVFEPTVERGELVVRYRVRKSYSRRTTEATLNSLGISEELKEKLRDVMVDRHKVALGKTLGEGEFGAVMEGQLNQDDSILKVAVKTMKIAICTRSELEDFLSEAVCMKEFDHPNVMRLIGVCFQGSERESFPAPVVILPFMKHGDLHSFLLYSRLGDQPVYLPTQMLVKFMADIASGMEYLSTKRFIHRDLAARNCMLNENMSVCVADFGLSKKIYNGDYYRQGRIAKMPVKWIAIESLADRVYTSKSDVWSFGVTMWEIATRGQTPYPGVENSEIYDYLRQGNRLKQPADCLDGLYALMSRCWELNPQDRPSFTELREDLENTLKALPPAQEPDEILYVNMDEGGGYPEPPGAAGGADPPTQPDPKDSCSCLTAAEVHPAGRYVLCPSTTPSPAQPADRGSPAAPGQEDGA

Compound | pIC50 [2] | also measured
Nc1nc(Nc2ccc(N3CCN(C4CC5CCC4C5)CC3)cc2)nn1-c1nccc2occc12 (centres unmarked) [Compound 131, N^3-(4-(4-(bicyclo[2.2.1]heptan-2-yl)piperazin-1-yl)phenyl)-1-(furo[3,2-c]pyridin-4-yl)-1H-1,2,4-triazole-3,5-diamine] |  | pIC50 [1]: > 6.00
Nc1nc(Nc2ccc(N3CCN(C4CC5CCC4C5)CC3)cc2)nn1-c1ncnc2sc3c(c12)CCC3 (centres unmarked) [Compound 132, N^3-(4-(4-(bicyclo[2.2.1]heptan-2-yl)piperazin-1-yl)phenyl)-1-(6,7-dihydro-5H-cyclopenta[4,5]thieno[2,3-d]pyrimidin-4-yl)-1H-1,2,4-triazole-3,5-diamine] |  | pIC50 [1]: 5.00 to 6.00
Cc1csc2c(-n3nc(Nc4ccc(C5CCN(C6CC7CCC6C7)CC5)cc4)nc3N)nc(Cl)nc12 (centres unmarked) [Compound 134, N^3-(4-(1-(bicyclo[2.2.1]heptan-2-yl)piperidin-4-yl)phenyl)-1-(2-chloro-7-methylthieno[3,2-d]pyrimidin-4-yl)-1H-1,2,4-triazole-3,5-diamine] |  | pIC50 [1]: > 6.00
Nc1nc(Nc2ccc(N3CCN(C4CC5CCC4C5)CC3)cc2)nn1-c1nc(C(F)(F)F)nc2ccccc12 (centres unmarked) [Compound 136, N^3-(4-(4-(bicyclo[2.2.1]heptan-2-yl)piperazin-1-yl)phenyl)-1-(2-(trifluoromethyl)quinazolin-4-yl)-1H-1,2,4-triazole-3,5-diamine] |  | pIC50 [1]: 5.00 to 6.00
Cc1nc(-n2nc(Nc3ccc(N4CCN(C5CC6CCC5C6)CC4)cc3)nc2N)c2c(C)c(C)sc2n1 (centres unmarked) [Compound 137, N^3-(4-(4-(bicyclo[2.2.1]heptan-2-yl)piperazin-1-yl)phenyl)-1-(2,5,6-trimethylthieno[2,3-d]pyrimidin-4-yl)-1H-1,2,4-triazole-3,5-diamine] |  | pIC50 [1]: 5.00 to 6.00
Cc1sc2ncnc(-n3nc(Nc4ccc(N5CCN(C6CC7CCC6C7)CC5)cc4)nc3N)c2c1C (centres unmarked) [Compound 138, N^3-(4-(4-(bicyclo[2.2.1]heptan-2-yl)piperazin-1-yl)phenyl)-1-(5,6-dimethylthieno[2,3-d]pyrimidin-4-yl)-1H-1,2,4-triazole-3,5-diamine] |  | pIC50 [1]: 5.00 to 6.00
Cc1csc2c(-n3nc(Nc4ccc(N5CCN(C6CC7CCC6C7)CC5)c(F)c4)nc3N)nc(Cl)nc12 (centres unmarked) [Compound 140, N^3-(4-(4-(bicyclo[2.2.1]heptan-2-yl)piperazin-1-yl)-3-fluorophenyl)-1-(2-chloro-7-methylthieno[3,2-d]pyrimidin-4-yl)-1H-1,2,4-triazole-3,5-diamine] |  | pIC50 [1]: 5.00 to 6.00
CCOC(=O)c1ccc(Nc2nc(N)n(-c3ccnc(Cl)c3)n2)cc1 [Compound 143, ethyl 4-(5-amino-1-(2-chloropyridin-4-yl)-1H-1,2,4-triazol-3-ylamino)benzoate] | < 4.70 | 
Nc1nc(Nc2ccc(C(=O)O)cc2)nn1-c1ccnc(N2CCC[C@H]2CN2CCCC2)c1 [Compound 146, (S)-4-(5-amino-1-(2-(2-(pyrrolidin-1-ylmethyl)pyrrolidin-1-yl)pyridin-4-yl)-1H-1,2,4-triazol-3-ylamino) benzoic acid] | < 4.70 | 
Nc1nc(Nc2cc(F)c(F)c(F)c2)nn1-c1ccccn1 [Compound 149, 1-(pyridin-2-yl)-N^3-(3,4,5-trifluorophenyl)-1H-1,2,4-triazole-3,5-diamine] | < 4.70 | 
Nc1nc(Nc2cccc(O)c2)nn1-c1ccccn1 [Compound 150, 3-(5-amino-1-(pyridin-2-yl)-1H-1,2,4-triazol-3-ylamino)phenol] | < 4.70 | 
COc1cc2ncnc(-n3nc(Nc4ccc(OC5CCCN(C)C5)cc4)nc3N)c2cc1OC (centres unmarked) [Compound 153, 1-(6,7-dimethoxyquinazolin-4-yl)-N^3-(4-(1-methylpiperidin-3-yloxy)phenyl)-1H-1,2,4-triazole-3,5-diamine] | > 6.00 | 
Nc1nc(Nc2ccc(N3CCOCC3)cc2)n(-c2nccc3ccccc23)n1 [Compound 157, 1-(isoquinolin-1-yl)-N^5-(4-morpholinophenyl)-1H-1,2,4-triazole-3,5-diamine] |  | pIC50 (Hela cells, phospho-Akt readout, Table 6, formula (Ib3)): < 4.70
COc1cc2ncnc(-n3nc(Nc4ccc(N5CCOCC5)cc4)nc3N)c2cc1OC [Compound 158, 1-(6,7-dimethoxyquinazolin-4-yl)-N^3-(4-morpholinophenyl)-1H-1,2,4-triazole-3,5-diamine] | > 6.00 | 
COc1cc2ncnc(-n3nc(Nc4ccc(N5CCOCC5)c(Cl)c4)nc3N)c2cc1OC [Compound 159, N^3-(3-chloro-4-morpholinophenyl)-1-(6,7-dimethoxyquinazolin-4-yl)-1H-1,2,4-triazole-3,5-diamine] | > 6.00 | 
COc1cc2ncnc(-n3nc(Nc4ccc(N5CCOCC5)c(F)c4)nc3N)c2cc1OC [Compound 162, 1-(6,7-dimethoxyquinazolin-4-yl)-N^3-(3-fluoro-4-morpholinophenyl)-1H-1,2,4-triazole-3,5-diamine] | > 6.00 | 
COc1cc2ncnc(-n3nc(Nc4ccc(C5CCN(C)CC5)cc4)nc3N)c2cc1OC [Compound 168, 1-(6,7-dimethoxyquinazolin-4-yl)-N^3-(4-(1-methylpiperidin-4-yl)phenyl)-1H-1,2,4-triazole-3,5-diamine] | > 6.00 | 
COc1cc2c(-n3nc(Nc4ccc(C5CCN(C)CC5)cc4)nc3N)ncnc2cc1O [Compound 169, 4-(5-amino-3-(4-(1-methylpiperidin-4-yl)phenylamino)-1H-1,2,4-triazol-1-yl)-6-methoxyquinazolin-7-ol] | > 6.00 | 
COc1cc2ncnc(-n3nc(Nc4ccc(N5CC[C@H](N(C)C)C5)cc4)nc3N)c2cc1OC [Compound 171, 1-(6,7-dimethoxyquinazolin-4-yl)-N^3-(4-((S)-3-(dimethylamino)pyrrolidin-1-yl)phenyl)-1H-1,2,4-triazole-3,5-diamine] | > 6.00 | 
COc1cc2ncnc(-n3nc(Nc4ccc(CN5CCN(C)CC5)cc4)nc3N)c2cc1OC [Compound 173, 1-(6,7-dimethoxyquinazolin-4-yl)-N^3-(4-((4-methylpiperazin-1-yl)methyl)phenyl)-1H-1,2,4-triazole-3,5-diamine] | > 6.00 | 
COc1cc2ccnc(-n3nc(Nc4ccc(C5CCN(C)CC5)cc4)nc3N)c2cc1OC [Compound 174, 1-(6,7-dimethoxyisoquinolin-1-yl)-N^3-(4-(1-methylpiperidin-4-yl)phenyl)-1H-1,2,4-triazole-3,5-diamine] | > 6.00 | 
Nc1nc(Nc2ccc(OCCN3CCCC3)cc2)nn1-c1nc(Cl)nc2cc(Cl)sc12 [Compound 175, 1-(2,6-dichlorothieno[3,2-d]pyrimidin-4-yl)-N^3-(4-(2-pyrrolidin-1-ylethoxy)phenyl)-1H-1,2,4-triazole-3,5-diamine] |  | pIC50 [3]: > 6.00
Nc1nc(Nc2ccc(OCCN3CCCC3)cc2)nn1-c1nc(Cl)nc2sccc12 [Compound 176, 1-(2-chlorothieno[2,3-d]pyrimidin-4-yl)-N^3-(4-(2-pyrrolidin-1-ylethoxy)phenyl)-1H-1,2,4-triazole-3,5-diamine] |  | pIC50 [3]: > 6.00
Nc1nc(Nc2ccc(OCCN3CCCC3)cc2)nn1-c1nc(Cl)nc2ccsc12 [Compound 177, 1-(2-chlorothieno[3,2-d]pyrimidin-4-yl)-N^3-(4-(2-pyrrolidin-1-ylethoxy)phenyl)-1H-1,2,4-triazole-3,5-diamine] |  | pIC50 [3]: > 6.00

More lines, main results first:

pIC50 [2] | Compound | also measured
< 4.70 | COc1ccc(Nc2nc(N)n(-c3ccccn3)n2)cc1 [Compound 142, N^3-(4-methoxyphenyl)-1-(pyridin-2-yl)-1H-1,2,4-triazole-3,5-diamine] | 
< 4.70 | CC(=O)c1ccc(Nc2nc(N)n(-c3cnc4ccccc4n3)n2)cc1 [Compound 144, 1-(4-(5-amino-1-(quinoxalin-2-yl)-1H-1,2,4-triazol-3-ylamino)phenyl)ethanone] | 
< 4.70 | CC(=O)c1ccc(Nc2nc(N)n(-c3ccccc3F)n2)cc1 [Compound 147, 1-(4-(5-amino-1-(2-fluorophenyl)-1H-1,2,4-triazol-3-ylamino)phenyl)ethanone] | 
< 4.70 | Nc1nc(Nc2ccc(CCC(=O)N3CCCC3)cc2)nn1-c1cnc2ccccc2n1 [Compound 152, 3-(4-(5-amino-1-(quinoxalin-2-yl)-1H-1,2,4-triazol-3-ylamino)phenyl)-1-(pyrrolidin-1-yl)propan-1-one] | 
> 6.00 | CN1CCCC(Oc2ccc(Nc3nc(N)n(-c4nccc5ccccc45)n3)cc2)C1 (centres unmarked) [Compound 155, 1-(isoquinolin-1-yl)-N^3-(4-(1-methylpiperidin-3-yloxy)phenyl)-1H-1,2,4-triazole-3,5-diamine] | 
> 6.00 | Nc1nc(Nc2ccc(N3CCOCC3)c(F)c2)nn1-c1nccc2ccccc12 [Compound 161, N^3-(3-fluoro-4-morpholinophenyl)-1-(isoquinolin-1-yl)-1H-1,2,4-triazole-3,5-diamine] | 
> 6.00 | CN1CCN(Cc2ccc(Nc3nc(N)n(-c4nccc5ccccc45)n3)cc2)CC1 [Compound 163, 1-(isoquinolin-1-yl)-N^3-(4-((4-methylpiperazin-1-yl)methyl)phenyl)-1H-1,2,4-triazole-3,5-diamine] | 
> 6.00 | CN(C)[C@@H]1CCN(c2ccc(Nc3nc(N)n(-c4nccc5ccccc45)n3)cc2)C1 [Compound 164, N^3-(4-((R)-3-(dimethylamino)pyrrolidin-1-yl)phenyl)-1-(isoquinolin-1-yl)-1H-1,2,4-triazole-3,5-diamine] | 
> 6.00 | CN(C)[C@H]1CCN(c2ccc(Nc3nc(N)n(-c4nccc5ccccc45)n3)cc2)C1 [Compound 165, N^3-(4-((S)-3-(dimethylamino)pyrrolidin-1-yl)phenyl)-1-(isoquinolin-1-yl)-1H-1,2,4-triazole-3,5-diamine] | 
< 4.70 | Nc1nc(Nc2ccc(-c3cnco3)cc2)nn1-c1nccc2ccccc12 [Compound 166, 1-(isoquinolin-1-yl)-N^3-(4-(oxazol-5-yl)phenyl)-1H-1,2,4-triazole-3,5-diamine] | 
> 6.00 | CN1CCC(c2ccc(Nc3nc(N)n(-c4nccc5ccccc45)n3)cc2)CC1 [Compound 167, 1-(isoquinolin-1-yl)-N^3-(4-(1-methylpiperidin-4-yl)phenyl)-1H-1,2,4-triazole-3,5-diamine] | 
